Data set [1] is described as follows: Antioxidant activity assessed as trolox equivalent of ABTS radical scavenging activity measured for 6 mins. Type of data set: functional.
The nature of data set [2]: Antioxidant activity assessed as trolox equivalent of AAPH radical scavenging activity preincubated for 15 mins followed by 10 sec incubation under shaking condition and measured every minute for 2 hrs by ORAC fluorescence based microplate reader analysis. Type of data set: functional. The following applies: time 8110.0 sec.
Data set [3] is described as follows: Hemolytic activity in human red blood cell assessed as cell membrane disruption at 12.5 to 400 ug/ml incubated for 1 hrs by microplate reader analysis. The following applies: erythrocyte, dose 12.5-400 µg/ml. Type of data set: toxicity, cell-based.
In a further data set the test system is Erythrocyte. The data set is described as follows: Protection against AAPH-induced hemolysis in human RBC at 25 to 400 ug/ml preincubated with compound for 20 mins followed bu AAPH addition and measured after 3 hrs by spectrophotometric analysis. The format is functional, cell-based. The conditions noted are these: dose 25-400 µg/ml, time 200.0 min.
Data set [4] in a line: Protection against AAPH-induced hemolysis in human RBC at 50 to 100 ug/ml preincubated with compound for 20 mins followed bu AAPH addition and measured after 3 hrs by spectrophotometric analysis relative to control. The format is functional, Erythrocyte. The conditions noted are these: dose 50-100 µg/ml; time 200 min; 3.333 h; at 50 to 100 µg/mL.
Data set [5] in a line: Cytotoxicity against human SK-N-BE(2) cells assessed as reduction in cell viability incubated for 24 hrs by MTT assay. The format is toxicity, cell-based.
Data set [6] can be described thus: Antioxidant activity assessed as protection against AAPH-induced DNA degradation in to linear form incubated for 1 hrs by SYBR dye based electrophoresis. The format is functional.
For data set [7], the system named is N2a. The data set is described as follows: Antioxidant activity in arsenite-induced mouse Neuro2a cells assessed as reduction in Nrf2 protein level at 100 uM incubated for 3 hrs by Western blot analysis. Type of data set: functional, cell-based.
In data set [8] the test system is N2a. The data set is described as follows: Antioxidant activity in arsenite-induced mouse Neuro2a cells assessed as increase in SOD level at 100 uM incubated for 3 hrs by Western blot analysis. The format is functional, cell-based. In general terms: Immunoblotting shows a protein as a band on a membrane.
In data set [9] the test system is SK-N-BE(2). The data set can be described thus: Antioxidant acitivity against PMA-stimulated human SK-N-BE(2) cells assessed as reduction in PMA-stimulated ROS level at 50 to 100 uM incubated for 60 mins by DCFH-DA staining based flow cytometric analysis. The format is functional, cell-based. The conditions noted are these: dose 50-100 µM. Background: In flow cytometry, cells or beads pass a laser one at a time.

The test system of data set [10] is SK-N-BE(2). The data set is described as follows: Antioxidant acitivity against PMA-stimulated human SK-N-BE(2) cells assessed as reduction in PMA-stimulated RNS level at 50 uM incubated for 60 mins by DCFH-DA staining based flow cytometric analysis. Type of data set: functional, cell-based.

The source made the active and inactive calls. The calls are words filed in the database; no cut-off is given here. Where a SMILES comes first, the peptide text is derived from it.

This is an account of results in ChEMBL document CHEMBL5236629, “Antioxidant and Neuroprotective Effects of the First Tryptophyllin Found in Snake Venom (Bothrops moojeni)” (J Nat Prod, 2022).

Take `CC[C@H](C)[C@H](NC(=O)[C@H](Cc1c[nH]c2ccccc12)NC(=O)[C@@H]1CCCN1C(=O)[C@@H](N)Cc1ccccc1)C(=O)N[C@H](C(=O)N[C@@H](CO)C(N)=O)[C@@H](C)CC` (H-FPWIIS-NH2): the Activity in data set [1] is 796 µM/g; in [2] it was 674 µM/g; in data set [3] it was “Non-Toxic”; in data set [4] it was above 75%. Also, the result (with Erythrocyte; in [6]; in the data set with N2a [7]; in the data set on SK-N-BE(2) [9]; in the data set on SK-N-BE(2) [10]) was Active. For the same compound, the CC50 at 24 h in [5] came to 1730 µM. Further, the result with N2a [8] was inactive.

By CC50 is commonly meant the concentration that lowers cell viability or growth by half.
